According to publication PMC10005301, “Prediction of the n-Octanol/Water Partition Coefficients of Basic Compounds Using Multi-Parameter QSRR Models Based on IS-RPLC Retention Behavior in a Wide pH Range” (Molecules, 2023):
Where two headings read alike, the source gives them in different places.

Tests used:
[1] = IS-RPLC retention on silica-based C18 column, logkw by linear solvent strength model; format: physicochemical
Description: (§1) The retention behavior of the 42 basic compounds (Table 1) were investigated at different ratios of methanol (φ = 0.7–0.1, the interval was 0.1 or 0.05 based on the retention of the investigated solutes). The logk values were plotted versus φ for each solute at pH 7.0, pH 8.0, pH 9.0, and pH 10.0. […] The logD values of the model compounds and verification compounds calculated using Equation (S3) based on the logP and pH values are also listed in Table 1.
The column temperature was set at 30 °C. Methanol and 20 mmol/L ammonium phosphate buffer (pH = 7.0, 8.0, 9.0, 10.0) was used as the mobile phase to perform isocratic elution. The injection volume was 10 µL and the detection wavelength for each eluted compound was set at its optimum absorption wavelength.
(§2) At each pH, the retention time (tR) of every analyte was determined for at least four different volume fractions (φ) of methanol. All the tR values of the solutes were obtained by averaging the results of at least three independent injections. The tR value was corrected using dual-point retention time correction (DP-RTC). For a detailed description of the process, refer to our previous work. For the different hydrophobicities of the studied compounds, benzene, toluene, and benzyl alcohol were used as anchor compounds in the DP-RTC method. The dead time t0 was determined using uracil. For each solute, the logarithm of k was plotted against φ, and logkw was obtained using the Equation (S1). The logD values of the model compounds were calculated using Equation (S3), and the logD–logkw models were established with Equation (S4). The statistical analysis for the regression model was accomplished using Origin 9.4. […]
(§3) Where, k is the capacity factor, φ is the volume fraction of organic modifier in the mobile phase, and S is the constant obtained by linear regression in the equations. […]
The Eqs. (S1) and (S2) are the basis for the determination of logP by revered- phase liquid chromatography (RPLC) method. For dissociative solutes, it has been confirmed by many studies that the logD calibrated from logP has a better linear correlation with logkw than logP. […]

[2] = Source text: as §1, §2, §3
and logkw, which is usually called Collander equation [25 ]. lo g lo g wPm k n= + (S2)
Where, m and n are constants obtained by linear regression.
The Eqs. (S1) and (S2) are the basis for the determination of logP by revered- phase liquid chromatography (RPLC) method. For dissociative solutes, it has been confirmed by many studies that the logD calibrated from logP has a better linear correlation with logkw than logP.
For basic compounds, the logD value can be calibrated from Eq. (S3), and the Collander equation can be rewritten into Eq. (S4). log log( )D − −+ −+= + ++P […]
lo g ' lo g 'Dm k n= +w (S4)
Where, pKa1, pKa2 , … p Kan are the dissociation constants of basic compounds of corresponding acids in the mobile phase, pH is the pH value of mobile phase, m′ and n′ are fitting parameters. Han et al. pointed out that although mobile phase pH and pKa of solutes will change along with the varied organic modifier fraction, the difference between a couple of relevant pH and pKa is a constant. Therefore, the used pH and pKa in this paper were both the values obtained at 100% aqueous phase. […]

[3] = design: method as in UFZ-LSER database; conditions: hydrogen bonding parameter B; ref UFZ-LSER database; cited from earlier work
[4] = ref database module of ACD/Labs software; cited from earlier work
[5] = ref database module of ACD/Labs software, cited from earlier work
physchem = assay: physchem
Description: Multi-parameter QSRR models including logD, logkw, ne, A, and B were established using the multiple linear regression (MLR) method. In the process of linear fitting, ne, A, B, and their different combinations were introduced to optimize the models.
The logD values reported in the literature for these four compounds were calculated using Equation (S3) with corresponding pKa, logP, and pH values.
At each pH, the retention time (tR) of every analyte was determined for at least four different volume fractions (φ) of methanol. All the tR values of the solutes were obtained by averaging the results of at least three independent injections. The tR value was corrected using dual-point retention time correction (DP-RTC). For a detailed description of the process, refer to our previous work. For the different hydrophobicities of the studied compounds, benzene, toluene, and benzyl alcohol were used as anchor compounds in the DP-RTC method. The dead time t0 was determined using uracil. For each solute, the logarithm of k was plotted against φ, and logkw was obtained using the Equation (S1). The logD values of the model compounds were calculated using Equation (S3), and the logD–logkw models were established with Equation (S4). The statistical analysis for the regression model was accomplished using Origin 9.4.

[6] = pH 7.0, methanol/20 mmol/L ammonium phosphate buffer, Welch Xtimate C18, 30 °C, 100% aqueous extrapolation
[7] = pH 8.0, methanol/20 mmol/L ammonium phosphate buffer, Welch Xtimate C18, 30 °C, 100% aqueous extrapolation
[8] = pH 9.0, methanol/20 mmol/L ammonium phosphate buffer, Welch Xtimate C18, 30 °C, 100% aqueous extrapolation
[9] = pH 10.0, methanol/20 mmol/L ammonium phosphate buffer, Welch Xtimate C18, 30 °C, 100% aqueous extrapolation

c1ccc(-c2ccncc2)cc1 [4-Phenylpyridine]
logkw-pH 7.0 ([1]; pH 7): 2.66
logkw-pH 8.0 ([1]; pH 8): 2.81
logkw-pH 9.0 ([1]; pH 9): 2.84
logkw-pH 10.0 ([1]; pH 10): 2.80
logDpH 7.0 ([2]; pH 7): 2.58
logDpH 8.0 ([2]; pH 8): 2.59
logDpH 9.0 ([2]; pH 9): 2.59
logDpH 10.0 ([2]; pH 10): 2.59
B [3]: 1.38
pKa1 [4]: 5.45
logP ([5]; n-octanol/water): 2.59

Cc1ccccc1N [2-Methylaniline]
logkw-pH 7.0 ([1]; pH 7): 1.47
logkw-pH 8.0 ([1]; pH 8): 1.44
logkw-pH 9.0 ([1]; pH 9): 1.45
logkw-pH 10.0 ([1]; pH 10): 1.49
logDpH 7.0 ([2]; pH 7): 1.40
logDpH 8.0 ([2]; pH 8): 1.40
logDpH 9.0 ([2]; pH 9): 1.40
logDpH 10.0 ([2]; pH 10): 1.40
B [3]: 0.97
logP ([5]; n-octanol/water): 1.40

CN(C)c1ccccc1 [N, N-Dimethylaniline]
logkw-pH 7.0 ([1]; pH 7): 2.18
logkw-pH 8.0 ([1]; pH 8): 2.37
logkw-pH 9.0 ([1]; pH 9): 2.39
logkw-pH 10.0 ([1]; pH 10): 2.44
B [3]: 0.96
pKa1 [4]: 5.07

CCc1ccccc1N [2-Ethylaniline]
logkw-pH 7.0 [1, 6]: 1.87
logkw-pH 8.0 [1, 7]: 1.94
logkw-pH 9.0 [1, 8]: 1.95
logkw-pH 10.0 [1, 9]: 1.95
logDpH 7.0 ([2]; pH 7): 1.63
logDpH 8.0 ([2]; pH 8): 1.67
logDpH 9.0 ([2]; pH 9): 1.67
logDpH 10.0 ([2]; pH 10): 1.67
B [3]: 0.96
chromatographic logD (physchem; pH 7): 1.79
chromatographic logD (physchem; pH 8): 1.77
chromatographic logD (physchem; pH 9): 1.75
chromatographic logD (physchem; pH 10): 1.71

Nc1ccc(N)cc1 [1,4-Benzenediamine]
logkw-pH 7.0 ([1]; pH 7): −0.39
logkw-pH 8.0 ([1]; pH 8): −0.35
logkw-pH 9.0 ([1]; pH 9): −0.17
logkw-pH 10.0 ([1]; pH 10): −0.04
logDpH 7.0 ([2]; pH 7): −0.38
logDpH 8.0 ([2]; pH 8): −0.31
logDpH 9.0 ([2]; pH 9): −0.30
logDpH 10.0 ([2]; pH 10): −0.30
B [3]: 1.30
pKa1 [4]: 6.31
pKa2 [4]: 2.97
logP ([5]; n-octanol/water): −0.30

COc1ccccc1N [2-Methoxyaniline]
logkw-pH 7.0 ([1]; pH 7): 1.38
logkw-pH 8.0 ([1]; pH 8): 1.41
logkw-pH 9.0 ([1]; pH 9): 1.42
logkw-pH 10.0 ([1]; pH 10): 1.49
logDpH 7.0 ([2]; pH 7): 0.95
logDpH 8.0 ([2]; pH 8): 0.95
logDpH 9.0 ([2]; pH 9): 0.95
logDpH 10.0 ([2]; pH 10): 0.95
B [3]: 0.99
pKa1 [4]: 4.53
logP ([5]; n-octanol/water): 0.95

Cc1ccncc1 [4-Methylpyridine]
logkw-pH 7.0 [1, 6]: 1.40
logkw-pH 8.0 [1, 7]: 1.41
logkw-pH 9.0 [1, 8]: 1.44
logkw-pH 10.0 [1, 9]: 1.46
logDpH 7.0 ([2]; pH 7): 1.29
logDpH 8.0 ([2]; pH 8): 1.33
logDpH 9.0 ([2]; pH 9): 1.33
logDpH 10.0 ([2]; pH 10): 1.33
B [3]: 0.63
pKa1 [4]: 5.99
logP ([5]; n-octanol/water): 1.33

Cc1ccc(N)c(C)c1 [2,4-Dimethylaniline]
logkw-pH 7.0 ([1]; pH 7): 1.92
logkw-pH 8.0 ([1]; pH 8): 1.98
logkw-pH 9.0 ([1]; pH 9): 2.00
logkw-pH 10.0 ([1]; pH 10): 2.04
logDpH 7.0 ([2]; pH 7): 1.68
logDpH 8.0 ([2]; pH 8): 1.68
logDpH 9.0 ([2]; pH 9): 1.68
logDpH 10.0 ([2]; pH 10): 1.68
B [3]: 0.95
pKa1 [4]: 4.70
logP ([5]; n-octanol/water): 1.68

CCc1ccccn1 [2-Ethylpyridine]
logkw-pH 7.0 [1, 6]: 1.74
logkw-pH 8.0 [1, 7]: 1.79
logkw-pH 9.0 [1, 8]: 1.80
logkw-pH 10.0 [1, 9]: 1.90
logDpH 7.0 ([2]; pH 7.0, calculated with literature logP, pKa and pH, Equation (S3)): 2.05
logDpH 8.0 ([2]; pH 8.0, calculated with literature logP, pKa and pH, Equation (S3)): 2.05
logDpH 9.0 ([2]; pH 9.0, calculated with literature logP, pKa and pH, Equation (S3)): 2.05
logDpH 10.0 ([2]; pH 10.0, calculated with literature logP, pKa and pH, Equation (S3)): 2.05
B [3]: 0.61
logP ([5]; Table 4, verification compounds): 1.67
logP ([5]; n-octanol/water): 1.67
chromatographic logD (physchem; IS-RPLC retention (logkw), pH 7): 1.62
chromatographic logD (physchem; IS-RPLC retention (logkw), pH 8): 1.62
chromatographic logD (physchem; IS-RPLC retention (logkw), pH 9): 1.6
chromatographic logD (physchem; IS-RPLC retention (logkw), pH 10): 1.65
